Reference: publication PMC7457137, “An Integrated Pharmacokinetic Study of an Acanthopanax senticosus Extract Preparation by Combination of Virtual Screening, Systems Pharmacology, and Multi-Component Pharmacokinetics in Rats” (Frontiers in Pharmacology, 2020)
Where two headings read alike, the source gives them in different places.

Assays:
[1] = Multi-component PK in rats after i.v. administration of ASEP; type: in vivo, Sprague-Dawley rats; details: for ingredient concentration in rat plasma: PK time points 2.5, 5, 10, 15 and 20 min after single i.v. 3.52 ml/kg of 5 times concentrated ASEP, preliminary examination; for AUC0-∞ / AUC(0-t) / Cl / MRT0-∞ / Vd / t 1/2 / MRT0-t / AUC(0-inf) / clearance / MRT last / MRT inf / half-life: rat plasma, mean ± SD, n=3; for AUC(0-inf): read-out: AUC0-∞; for clearance: read-out: Cl (converted); for MRT last: read-out: MRT0-t; for MRT inf: read-out: MRT0-∞; for half-life: read-out: t 1/2 (converted)
Protocol: The animal experiments were conducted in line with the Guide for the Care and Use of Laboratory Animals (published by the USA National Institutes of Health, NIH Publication no. 85-23, revised 1996), which were approved by the Animal Care and Use Committee of the College of Animal Science (College of Bee Science), Fujian Agriculture and Forestry University (Approval Number: […]2019004). […] All rats were acclimated to the facilities and environment for 7 days before the experiments. […] The gradient elution was carried out by the mobile phase water with 0.1% formic acid (A) and methanol (B). […] The column temperature and flow rate were at 35 °C and 0.5 ml/min, resepectively. 5 μl sample solution was injected for the HPLC-MS analysis. The electrospray ionization (ESI) source conditions were as follows: block heating temperature was kept at 400 °C; desolvation line temperature was set at 250 °C; dry gas (nitrogen) flow rate was kept at 15 L/min; and auxiliary gas (nitrogen) flow rate was 3 L/min. […] The plasma samples were separated by centrifugation, followed by storing at -20 °C before analysis. […] A DAS 3.0 software (Chinese Pharmacologic Society, Beijing, China) was used to calculate the noncompartmental PK parameters. All the results were presented as mean ± SD, and statistics analysis was done with a single-tailed Student's t test in the work.

[2] = Stability of the compounds in rat plasma (LC-MS validation); type: in vitro ADME
Description: According to the “Guidelines for non-clinical pharmacokinetics of drugs” issued by Centre for Drug Evaluation, National Medical Products Administration, China ([Guidelines for non-clinical pharmacokinetics of drugs, 2014]), the LC-MS method was validated by linearity, limits of detection (LOD), limits of quantification (LOQ), precision, accuracy, extraction recovery, matrix effect and stability of the 6 compounds in rat plasma. In brief, blank rat plasma was obtained from the other six rats. The standard mixture solution containing the 6 compounds (with the concentration of 1 mg/ml for each) was diluted with […] to prepare a series of working solution containing the 6 compounds (concentration level: 20, 50, 100, 250, 500 ng/ml and 1, 2.5, 5, 10, 25, 50, 100, 125 150, 200 μg/ml) and IS (2.5μg/ml). For calibration curve, 10 μl of the series of working solution containing the IS (2.5μg/ml) was added into 100 μl of blank plasma. Finally, 15 data points (2, 5, 10, 25, 50, 100, 250, 500 ng/ml and 1, 2.5, 5, 10, 12.5 15, 20 μg/ml) were used in the calibration curve linearity. Calibration curves were plotted by weighted linear regression of the peak area ratio of analyte to the IS against the related nominal concentration of the analyte. LOD and LOQ were defined as the detectable concentration at which the ratio of signal to noise was about 3 and 10, respectively ([Huang et al., 2019]). […] The extraction recovery and matrix effect were also assessed at the above-mentioned three concentration levels for the 6 ingredients in the spiked plasma samples ([Huang et al., 2019]). Stability was examined under the condition of setting un-treated plasma samples at ambient temperature for 6 h, and extracted plasma samples in auto-sampler for 10 h, as well as setting plasma samples for three freeze-thaw cycles and at −80°C for 15 days ([Guidelines for non-clinical pharmacokinetics of drugs, 2014]).

[3] = tested on: human umbilical vein endothelial cells; set-up: method as in Lin et al., 2017; Hu et al., 2018; details: ref Lin et al., 2017, Hu et al., 2018; cited from earlier work
zebrafish model = tested on: zebrafish model; set-up: method as in Lin et al., 2017; Hu et al., 2018; details: ref Lin et al., 2017, Hu et al., 2018; cited from earlier work
[4] = rat, in vivo; cited from earlier work
[5] = High group: single i.v. 3.52 ml/kg of 5 times concentrated ASEP
[6] = Low group: single i.v. 1.76 ml/kg of 5 times concentrated ASEP
[7] = extracted plasma samples, 10h in auto-sampler vials, high spiked level (HQC, 8000-16000 ng/mL)
[8] = extracted plasma samples, 10h in auto-sampler vials, low spiked level (LQC, 5-30 ng/mL)
[9] = extracted plasma samples, 10h in auto-sampler vials, middle spiked level (MQC, 400-1600 ng/mL)
[10] = rat plasma, 6h at room temperature, high spiked level (HQC, 8000-16000 ng/mL)
[11] = rat plasma, 6h at room temperature, low spiked level (LQC, 5-30 ng/mL)
[12] = rat plasma, 6h at room temperature, middle spiked level (MQC, 400-1600 ng/mL)
[13] = rat plasma, freeze-thaw stability (three cycles), high spiked level (HQC, 8000-16000 ng/mL)
[14] = rat plasma, freeze-thaw stability (three cycles), low spiked level (LQC, 5-30 ng/mL)
[15] = rat plasma, freeze-thaw stability (three cycles), middle spiked level (MQC, 400-1600 ng/mL)
[16] = rat plasma, long-term stability (-80℃,15 days), high spiked level (HQC, 8000-16000 ng/mL)
[17] = rat plasma, long-term stability (-80℃,15 days), low spiked level (LQC, 5-30 ng/mL)
[18] = rat plasma, long-term stability (-80℃,15 days), middle spiked level (MQC, 400-1600 ng/mL)
[19] = male, Sprague-Dawley, rat, plasma, iv, 1.76 ml/kg, Low group: single i.v. 1.76 ml/kg of 5 times concentrated ASEP
[20] = male, Sprague-Dawley, rat, plasma, iv, 3.52 ml/kg, High group: single i.v. 3.52 ml/kg of 5 times concentrated ASEP

SMILES	ingredient concentration in rat plasma [1]	AUC0-∞ [1, 5]	AUC(0-t) [1, 5]	Cl [1, 5]	MRT0-∞ [1, 5]	AUC0-∞ [1, 6]	AUC(0-t) [1, 6]	Cl [1, 6]	MRT0-t [1, 6]	MRT0-∞ [1, 6]	Stability, RE [2, 7]	Stability, RE [2, 8]	Stability, RE [2, 9]	Stability, RE [2, 10]	Stability, RE [2, 11]	Stability, RE [2, 12]	Stability, RE [2, 13]	Stability, RE [2, 14]	Stability, RE [2, 15]	Stability, RE [2, 16]	further results
O=C(/C=C/c1ccc(O)c(O)c1)OC1[C@H](O)CC(O)(C(=O)O)C[C@H]1O (stereo partly drawn) [4-CQA]	> 0.5 ng/mL	3,161.48 ± 69.18 h·ng/ml	3,156.93 ± 68.74 h·ng/ml	0.80 ± 0.02 L/h	25.8 ± 0.6 min	1,750.59 ± 64.24 h·ng/ml	1,747.89 ± 64.52 h·ng/ml	0.73 ± 0.03 L/h	21.6 ± 0 min	22.2 ± 0 min	-6.85%	-16.89%	14.39%	-7.63%	-6.42%	9.60%	-3.17%	19.90%	-0.64%	-1.64%	Vd [1, 5]: 0.76 ± 0.02 L; t 1/2 [1, 5]: 39.6 ± 0.6 min; Vd [1, 6]: 0.98 ± 0.11 L; t 1/2 [1, 6]: 55.8 ± 4.8 min; Stability, RE [2, 17]: 17.58%; Stability, RE [2, 18]: 14.43%
O=C(/C=C/c1ccc(O)c(O)c1)O[C@@H]1C[C@@](O)(C(=O)O)C[C@@H](O)[C@@H]1O [5-CQA, 5-caffeoylquinic acid]		4,013.66 ± 42.67 h·ng/ml	4,006.71 ± 42.76 h·ng/ml	0.86 ± 0.01 L/h	21 ± 0 min	2,249.80 ± 109.69 h·ng/ml	2,244.68 ± 109.65 h·ng/ml	0.77 ± 0.04 L/h	26.4 ± 1.2 min	27.6 ± 1.2 min											MRT0-t [1, 5]: 19.8 ± 0 min
O=C(O)c1ccc(O)c(O)c1 [PCA, protocatechuic acid]	> 0.5 ng/mL										-5.63%	-2.62%	-6.89%	0.16%	-6.60%	-4.01%	-0.14%	-0.31%	0.85%	-10.60%	AUC(0-t) ([1]; male, Sprague-Dawley, rat, plasma, iv, 1.76 ml/kg, Low group: single i.v. 1.76 ml/kg of 5 times concentrated ASEP, read-out: AUC0-t): 202 ± 4.82 ng·h/mL; AUC(0-inf) [1, 19]: 204 ± 5.08 ng·h/mL; clearance [1, 19]: 96 mL/min; MRT last [1, 19]: 15 ± 0.6 min; MRT inf [1, 19]: 16.8 ± 1.2 min; Vd ([1]; male, Sprague-Dawley, rat, plasma, iv, 1.76 ml/kg, Low group: single i.v. 1.76 ml/kg of 5 times concentrated ASEP, read-out: Vd): 2.91 ± 0.07 L; half-life [1, 19]: 21 ± 0.6 min; AUC(0-t) ([1]; male, Sprague-Dawley, rat, plasma, iv, 3.52 ml/kg, High group: single i.v. 3.52 ml/kg of 5 times concentrated ASEP, read-out: AUC0-t): 308 ± 14.2 ng·h/mL; AUC(0-inf) [1, 20]: 310 ± 14.1 ng·h/mL; clearance [1, 20]: 126 mL/min; MRT last [1, 20]: 18 ± 0.6 min; MRT inf [1, 20]: 19.2 ± 0.6 min; Vd ([1]; male, Sprague-Dawley, rat, plasma, iv, 3.52 ml/kg, High group: single i.v. 3.52 ml/kg of 5 times concentrated ASEP, read-out: Vd): 4.39 ± 0.22 L; half-life [1, 20]: 24 min; Stability, RE [2, 17]: -9.72%; Stability, RE [2, 18]: -3.16%; effect on VEGF-induced angiogenesis [3]: significant inhibitory effects; effect on VEGF-induced angiogenesis (zebrafish model): significant inhibitory effects
COc1cc2ccc(=O)oc2c(OC)c1O [isofraxidin]																					elimination in cerebral ischemia-reperfusion rats compared with the normal group [4]: changed
